Earlier results on one molecule are cited in patent US20130251663A1, “Tissue Preservation Fluid” (GREENBLENDZ, INC., priority 2012, published 2013).

The data set has as its system eyes nose and throat. The conditions noted are these: airborne exposure.

In the case of `C=O` [formaldehyde], the “Airborne concentration immediately dangerous to life and health” value was 100 ppm; the “Airborne concentration that can cause irritation of the eyes nose and throat” value is on record as “above 0.1 ppm”.
